From US5554631A, “5-pyrrolyl-6-halogeno-2-pyridylmethylsulfinyl benzimidazole derivatives” (Il-Yang Pharm. Co., Ltd., priority 1994, dated 1996)
Structures can show the parent of a compound that is named as a salt. One block for each molecule: values may come before it.

Columns and labels:
[1] = system: acidity; assay: Inhibition of acidity (total acid output), Shay method; type: in vivo, SD male rats; settings: for Volume (inhibition of acidity) / Inhibition rate, acidity: intraduodenal; for Volume (inhibition of acidity) / Inhibition rate, acidity / ED50: 5 h; for Inhibition rate, acidity: vs normal group; for ED50: Rattus norvegicus
Method: (§1) The specific test methods are as follows.
(§2) SD male rats (200±20 g) were fasted for 24 hours, except for water, and then anesthesized with ether. The abdomen of rats was incised and then the pylorus was ligated. The test compounds were suspended or dissolved in […] (carboxymethylcellulose) and injected into duodenum. After the abdomen was suctured, the rats were allowed to stand for 5 hours and then sacrificed with ether. The stomach was removed from rats and the gastric juices were collected. The gastric juice was centrifuged with 10,000×g for 10 minutes at 4° C. to remove the precipitate. The amount of gastric juice and acidity were determined using pH 7.0 end point assay with 0.02N NaOH and then the total acid output was calculated.

[2] = molecular target: T1, H^+ /K^+ -ATPase (Oryctolagus cuniculus, UniProt P27112); assay: Inhibition of H+/K+-ATPase enzyme activity in vitro; type: biochemical, rabbit; settings: rabbit gastric microsomal H+/K+-ATPase, 5 min pre-incubation at 37° C., 4 mM ATP; read-out: IC50
T1 construct: The gastric mucous membrane was removed from rabbit; from tissue; host or cells: rabbit gastric mucosa, microsomal fraction (77,000 xg)
Method: The gastric mucous membrane was removed from rabbit and then centrifuged with 77,000 xg using a ultracentrifuge to separate the microsomal fraction which was used as the source of H^+ /K^+ -ATPase enzyme for this test. 60 μg of H^+ /K^+ -ATPase was pre-incubated with the sample (the compound according to the present invention) for 5 minutes at 37° C. and then 4 mM ATP as the substrate and 4 mM Mg^++, 20 mM K^+ as the cofactor were added thereto. Then, the amount of inorganic phosphorus thus produced was determined using a spectrophotometer at 660 nm and converted into the amount of protein according to Lowry method. […]

[3] = system: gastric juice secretion; assay: Inhibition of gastric juice secretion, Shay method; type: in vivo, SD male rats; settings: for Gastric juice volume / Inhibition rate, gastric juice secretion: intraduodenal; for Gastric juice volume / Inhibition rate, gastric juice secretion / ED50: 5 h; for Inhibition rate, gastric juice secretion: vs normal group; for ED50: Rattus norvegicus
Method: as §1, §2

[4] = system: gastric and duodenal ulcers; settings: background art; cited from earlier work
[5] = system: proton pump of H^+, K^+ -ATPase; settings: background art; cited from earlier work
[6] = in vivo; settings: mouse, in vivo, po
Method: (§3) Five weeks aged ICR (male, female) mouse were pre-bred in the breeding cage for one week and then the animals showing a smooth gain in body weight were randomly selected and used in this test. The amount to be administered to the test animals was established on the basis of the maximum dose of 5,000 mg/kg with the common ratio of 1.5.
(§4) The test compounds in a powder were suspended in 0.5% methylcellulose and administered per oral using a lml syringe. The other specific conditions for administration are described in the following.
(§5) In the above test, the control group received only 0.5% methylcellulose.
(§6) (1) Clinical symptoms and death of test animals
(§7) The clinical symptoms and death of test animals caused by the test compounds were recorded immediately after administration of the test compounds and during the overall test period.

[7] = system: ICR (male, female) mouse; assay: in vivo; settings: oral; for Number of animals died in day after administration: each of days 0-14
Method: as §3, §4, §5, §6, §7

T1 sequence (P27112 2-1035 limits assumed): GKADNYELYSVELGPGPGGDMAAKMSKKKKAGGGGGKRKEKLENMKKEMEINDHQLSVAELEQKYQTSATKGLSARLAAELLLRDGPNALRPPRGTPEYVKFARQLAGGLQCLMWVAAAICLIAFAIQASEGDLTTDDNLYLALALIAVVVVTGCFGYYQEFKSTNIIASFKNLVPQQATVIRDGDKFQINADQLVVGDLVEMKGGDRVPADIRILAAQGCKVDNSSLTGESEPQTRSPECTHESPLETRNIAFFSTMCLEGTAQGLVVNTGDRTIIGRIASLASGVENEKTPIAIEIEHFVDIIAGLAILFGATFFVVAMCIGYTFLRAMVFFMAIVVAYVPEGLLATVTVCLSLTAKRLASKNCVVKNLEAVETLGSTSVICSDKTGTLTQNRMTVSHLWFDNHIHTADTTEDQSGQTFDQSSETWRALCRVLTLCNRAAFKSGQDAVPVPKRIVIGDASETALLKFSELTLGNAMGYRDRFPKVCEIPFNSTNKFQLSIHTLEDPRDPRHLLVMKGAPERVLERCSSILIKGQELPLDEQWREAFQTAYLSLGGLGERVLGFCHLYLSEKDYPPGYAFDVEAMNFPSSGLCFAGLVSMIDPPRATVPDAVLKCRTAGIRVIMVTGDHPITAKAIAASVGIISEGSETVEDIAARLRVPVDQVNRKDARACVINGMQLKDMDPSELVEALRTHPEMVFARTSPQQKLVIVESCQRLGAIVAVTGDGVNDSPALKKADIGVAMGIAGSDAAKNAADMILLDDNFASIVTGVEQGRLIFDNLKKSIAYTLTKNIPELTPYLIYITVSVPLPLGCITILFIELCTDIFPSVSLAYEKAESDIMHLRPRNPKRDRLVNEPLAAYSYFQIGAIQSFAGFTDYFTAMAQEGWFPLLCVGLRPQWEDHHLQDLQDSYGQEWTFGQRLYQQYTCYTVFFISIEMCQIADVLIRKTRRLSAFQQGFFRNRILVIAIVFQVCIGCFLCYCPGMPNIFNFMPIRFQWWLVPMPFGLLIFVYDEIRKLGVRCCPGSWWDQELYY
T1 sequence (P18597 whole entry partner): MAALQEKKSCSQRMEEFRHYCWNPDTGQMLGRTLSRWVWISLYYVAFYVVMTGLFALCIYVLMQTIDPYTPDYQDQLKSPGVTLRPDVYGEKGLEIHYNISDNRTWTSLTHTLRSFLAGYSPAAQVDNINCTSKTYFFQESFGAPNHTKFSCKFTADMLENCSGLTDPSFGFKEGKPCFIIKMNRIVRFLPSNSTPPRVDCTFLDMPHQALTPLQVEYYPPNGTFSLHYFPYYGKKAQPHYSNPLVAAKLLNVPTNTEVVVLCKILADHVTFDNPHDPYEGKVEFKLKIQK

IC50 [2]: 50 µM
Structure (SMILES): COc1c(C)cnc(C[S+]([O-])c2nc3cc(-n4c(C)ccc4C)c(F)cc3[nH]2)c1C (stereo not drawn) [Compound 15]
Volume (inhibition of acidity) ([1]; 10 mg/kg, rat): 26.61 ± 5.27 μEq/hr | Inhibition rate, acidity ([1]; 10 mg/kg, rat): 51.81% | Volume (inhibition of acidity) ([1]; 30 mg/kg, rat): 12.74 ± 1.80 μEq/hr | Inhibition rate, acidity ([1]; 30 mg/kg, rat): 76.93% | Gastric juice volume ([3]; 10 mg/kg, rat): 1.81 ± 0.19 ml/100 g BW | Inhibition rate, gastric juice secretion ([3]; 10 mg/kg, rat): 33.70% | Gastric juice volume ([3]; 30 mg/kg, rat): 1.46 ± 0.13 ml/100 g BW | Inhibition rate, gastric juice secretion ([3]; 30 mg/kg, rat): 46.52%

IC50 [2]: 12 µM
Structure (SMILES): COc1ccnc(C[S+]([O-])c2nc3cc(-n4c(C)ccc4C)c(F)cc3[nH]2)c1C (stereo not drawn) [Compound 16, 2-[[(4-methoxy-3-methyl)-2-pyridinyl]methylsulfinyl]-5-(1H-2,5-dimethylpyrrol-1-yl)-6-fluoro-1H-benzimidazole]
Volume (inhibition of acidity) ([1]; 3 mg/kg, rat): 25.65 ± 6.86 μEq/hr | Inhibition rate, acidity ([1]; 3 mg/kg, rat): 64.68% | Volume (inhibition of acidity) ([1]; 10 mg/kg, rat): 10.08 ± 3.71 μEq/hr | Inhibition rate, acidity ([1]; 10 mg/kg, rat): 86.12% | Volume (inhibition of acidity) ([1]; 30 mg/kg, rat): 1.75 ± 1.06 μEq/hr | Inhibition rate, acidity ([1]; 30 mg/kg, rat): 97.59% | ED50 [1]: 1.85 mg/kg | Acidity lowering effect (in words) ([1]; rat): high acidity lowering effect | Gastric juice volume ([3]; 3 mg/kg, rat): 1.92 ± 0.14 ml/100 g BW | Inhibition rate, gastric juice secretion ([3]; 3 mg/kg, rat): 44.35% | Gastric juice volume ([3]; 10 mg/kg, rat): 1.35 ± 0.15 ml/100 g BW | Inhibition rate, gastric juice secretion ([3]; 10 mg/kg, rat): 60.87% | Gastric juice volume ([3]; 30 mg/kg, rat): 0.98 ± 0.19 ml/100 g BW | Inhibition rate, gastric juice secretion ([3]; 30 mg/kg, rat): 71.59% | ED50 [3]: 4.53 mg/kg | Inhibition of gastric juice secretion (in words) ([3]; rat): very strong inhibition of gastric juice secretion

IC50 [2]: 22 µM
Structure (SMILES): COc1cc(C[S+]([O-])c2nc3cc(-n4c(C)ccc4C)c(F)cc3[nH]2)ncc1C (stereo not drawn) [Compound 17]

IC50 [2]: 400 µM
Structure (SMILES): Cc1cnc(C[S+]([O-])c2nc3cc(-n4c(C)ccc4C)c(F)cc3[nH]2)cc1C (stereo not drawn) [Compound 18]

IC50 [2]: 210 µM
Structure (SMILES): COc1ccnc(C[S+]([O-])c2nc3cc(-n4c(C)ccc4C)c(F)cc3[nH]2)c1 (stereo not drawn) [Compound 20]
Volume (inhibition of acidity) ([1]; 10 mg/kg, rat): 18.41 ± 2.27 μEq/hr | Inhibition rate, acidity ([1]; 10 mg/kg, rat): 74.23% | Volume (inhibition of acidity) ([1]; 30 mg/kg, rat): 11.31 ± 1.91 μEq/hr | Inhibition rate, acidity ([1]; 30 mg/kg, rat): 84.17% | Gastric juice volume ([3]; 10 mg/kg, rat): 1.41 ± 0.16 ml/100 g BW | Inhibition rate, gastric juice secretion ([3]; 10 mg/kg, rat): 53.62% | Gastric juice volume ([3]; 30 mg/kg, rat): 1.06 ± 0.10 ml/100 g BW | Inhibition rate, gastric juice secretion ([3]; 30 mg/kg, rat): 65.13%

IC50 [2]: 5.9 µM
Structure (SMILES): COc1ccnc(C[S+]([O-])c2nc3cc(-n4c(C)ccc4C)c(F)cc3[nH]2)c1C (stereo not drawn) [Compound 25]

More lines, now with the values behind:

Structure (SMILES): COc1ccnc(C[S+]([O-])c2nc3cc(-n4c(C)ccc4C)c(F)cc3[nH]2)c1OC (stereo not drawn) [Compound 19]
IC50 [2]: 8100 µM

Structure (SMILES): Cc1ccc(C)n1-c1cc2nc([S+]([O-])Cc3ccccn3)[nH]c2cc1F (stereo not drawn) [Compound 21]
IC50 [2]: 7600 µM

Structure (SMILES): Cc1cnc(C[S+]([O-])c2nc3cc(-n4c(C)ccc4C)c(F)cc3[nH]2)c(C)c1OCC(F)(F)F (stereo not drawn) [Compound 22]
IC50 [2]: 390 µM

Structure (SMILES): Cc1c(OCC(F)(F)F)ccnc1C[S+]([O-])c1nc2cc(-n3c(C)ccc3C)c(F)cc2[nH]1 (stereo not drawn) [Compound 23]
IC50 [2]: 320 µM

Structure (SMILES): COc1ccnc(C[S+]([O-])c2nc3cc(-n4cccc4)c(F)cc3[nH]2)c1C (stereo not drawn) [Compound 24, 2-[[(4-methoxy-3-methyl)-2-pyridinyl]methylsulfinyl]-5-(1H-pyrrol-1-yl)-6-fluoro-1H-benzimidazole sodium salt]
IC50 [2]: 5.6 µM

Structure (SMILES): COc1ccc2[nH]c([S+]([O-])Cc3ncc(C)c(OC)c3C)nc2c1 (stereo not drawn) [Omeprazole, 5-methoxy-2-[[(4-methoxy-3,5-dimethyl-2-pyridinyl)methyl]sulfinyl]-1H-benzimidazole]
Anti-ulcer effect over conventional H2-receptor antagonists [4]: superior effect over conventional H2 -receptor antagonists | Duration compared with conventional anti-ulcer agents [4]: prolonged duration in comparison with conventional anti-ulcer agents | Acting mechanism [5]: specific proton pump inhibitor | Volume (inhibition of acidity) ([1]; 10 mg/kg, rat): 9.91 ± 4.20 μEq/hr | Inhibition rate, acidity ([1]; 10 mg/kg, rat): 82.89% | ED50 [1]: 3.73 mg/kg | IC50 [2]: ~160 µM | Gastric juice volume ([3]; 10 mg/kg, rat): 1.49 ± 0.18 ml/100 g BW | Inhibition rate, gastric juice secretion ([3]; 10 mg/kg, rat): 54.29% | ED50 [3]: 8.5 mg/kg | LD50 [6]: > 5000 mg/kg | Acute toxicity (in words) ([7]; clinical symptoms, death and autopsy results, mouse): very low as in Omeprazole | LD50 ([7]; female mouse): > 5,000.0 mg/kg BW | Number of animals died in day after administration ([7]; female mouse, 987 mg/kg): 0 | Number of animals died in day after administration ([7]; female mouse, 1481 mg/kg): 0 | Number of animals died in day after administration ([7]; female mouse, 2222 mg/kg): 0 | Number of animals died in day after administration ([7]; female mouse, 3333 mg/kg): 0 | Number of animals died in day after administration ([7]; female mouse, 5000 mg/kg): 0 | Clinical symptoms ([7]; male and female, maximum administration amount of 5,000 mg per kg): No specific abnormal clinical symptoms were observed | LD50 ([7]; male mouse): > 5,000.0 mg/kg BW | Number of animals died in day after administration ([7]; male mouse, 987 mg/kg): 0 | Number of animals died in day after administration ([7]; male mouse, 1481 mg/kg): 0 | Number of animals died in day after administration ([7]; male mouse, 2222 mg/kg): 0 | Number of animals died in day after administration ([7]; male mouse, 3333 mg/kg): 0 | Number of animals died in day after administration ([7]; male mouse, 5000 mg/kg): 0 | Visual autopsy view ([7]; survived animals): No specific abnormal autopsy view was observed
